Assays:
HNSCC cell lines = assay: Apoptosis assays (Annexin V/propidium iodide, BrdU TUNEL, cleaved PARP/caspase 3); type: cell-based, human; conditions: 50 nM
Protocol: FIGS. 7A-7D: PI3K/mTOR signaling inhibition induces cell death in NOTCH1^MUT but not NOTCH1^WT head and neck squamous cell carcinoma (HNSCC) cell lines in vitro. FIG. 7A. Annexin V/propidium iodide or BrDU-terminal deoxynucleotidyl transferase (TdT) dUTP nick-end labeling (TUNEL) assays were used to measure apoptosis in HNSCC cells with the indicated NOTCH1 and PIK3CA mutations, which were treated with 50 nM GSK2126458 (GSK212) for 24 or 48 hours, respectively. Values are the means±standard deviations of three independent experiments. *p<0.05, unpaired two-tailed Student t-test. FIG. 7B. Western blotting of cleaved PARP (Cl-PARP) and cleaved caspase 3 (Cl-Caspase 3) levels in mutant and wild type cells after GSK212 treatment for 48 hours. FIG. 7C. NOTCH1^MUT and NOTCH1^WT HNSCC cells were plated sparsely and treated with GSK212 at the indicated concentrations for 48 hours. At 14-21 days after treatment, the cells were fixed and stained, images were captured using the GelCount Tumour Colony Counter, and colony numbers and the colorimetric intensity of the colonies were determined by measuring the optical density (OD) at 570 nm. Values are the means±standard deviations of three independent experiments. *p<0.001, unpaired two-tailed Student t-test. FIG. 7D. Three NOTCH1^WT lines (black text and bars) and three NOTCH1^MUT lines (red text and bars) were treated with increasing concentrations of GSK212 for 4 hours, and levels of PI3K/mTOR pathway proteins were measured by Western blot analysis.
Western blot analysis. Western blot analysis was performed as described previously (Ferrarotto et al., 2016). In brief, cells were lysed with ice-cold lysis buffer, and the lysates were centrifuged at 20,000×g for 10 minutes at 4° C. Cell samples containing equal amounts of protein were resolved using sodium dodecyl sulfate-polyacrylamide gel electrophoresis, transferred to nitrocellulose membranes, and immunoblotted with different primary antibodies. Protein expression was detected using a horseradish peroxidase-conjugated secondary antibody (Bio-Rad, Hercules, CA) and electrochemiluminescence reagent (Amersham Biosciences, Pittsburg, PA).
Apoptosis and cell cycle assays. To measure apoptosis, we performed terminal deoxynucleotidyl transferase dUTP nick end labeling (TUNEL) staining with an APO-BRDU Kit (BD Biosciences, San Jose, CA) and Annexin V/propidium iodide staining with an FITC Annexin V Apoptosis Detection Kit (BD Pharmingen, San Diego, CA) as described previously (Chandarlapaty et al., 2011). […] Data were acquired with a three-laser, 10-color Gallios flow cytometer (Beckman Coulter, Brea, CA) and analyzed using Kaluza software (Beckman Coulter, Brea, CA). […]

[1] = test system: HN31 and UMSCC22A subcutaneous xenografts; assay: Subcutaneous xenograft models of NOTCH1MUT HNSCC; type: in vivo, athymic nude mice; conditions: 1 mg/kg oral gavage daily 28 days
Protocol: FIGS. 8A-8D: PI3K/mTOR pathway inhibitors cause apoptosis and reduce tumor size in NOTCH1^MUT head and neck squamous cell carcinoma (HNSCC) in vivo. FIGS. 8A and 8B. The NOTCH1^MUT cell lines HN31 (FIG. 8A) and UMSCC22A (UM22A; FIG. 8B) were injected subcutaneously (SQ) into athymic nude mice. After tumors reached 150 mm^3, the mice were randomized to receive either vehicle control (2-hydroxypropyl-β-cyclodextrin) or 1 mg/kg GSK2126458 (GSK212) by oral gavage daily for 28 days. Tumor sizes were measured and tumor volumes were calculated at the indicated times, and the percent change in tumor volume at the end of therapy was calculated using the formula (final tumor volume−initial tumor volume/initial tumor volume)×100%. The percentages of TUNEL-positive cells were calculated from image quantification at 40× magnification. FIGS. 8C and 8D. HN31 (FIG. 8C) and UM22A (FIG. 8D) were implanted orthotopically (OT) into the anterior tongues of athymic nude mice. […] Tumor sizes were measured, and tumor volumes and percent changes in tumor volumes were calculated as above. […] The percentages of TUNEL-positive cells were calculated as described above. Data are means±standard deviations from 5 mice per group; p values were calculated using an unpaired t-test with the Welch correction. […]

COc1ncc(-c2ccc3nccc(-c4ccnnc4)c3c2)cc1NS(=O)(=O)c1ccc(F)cc1F [GSK2126458]
apoptosis in PDK1-overexpressing versus parental lines (HNSCC cell lines; 24 or 48 hours, NOTCH1MUT cells overexpressing PDK1): decreased apoptosis | apoptosis (HNSCC cell lines; 24 or 48 hours, NOTCH1MUT lines): induced significant apoptosis | apoptosis (HNSCC cell lines; two NOTCH1WT/PIK3CAWT and three NOTCH1WT/PIK3CAMUT lines): no apoptosis was detected | apoptosis in tumors (TUNEL staining) [1]: significant apoptosis | tumor volume [1]: regressed

— patent US12195804B2, “Treatment of squamous cell carcinoma” (Board of Regents, The University of Texas System, priority 2018, dated 2025)
